Measurements from patent US6410792B1, “Amide derivatives and methods for using the same as selective neuropeptide Y receptor antagonists” (Bayer Corporation, priority 1997, dated 2002).
pIC50: −log10 of the molar value. Counter-ions that a name gives are not always drawn.

How the values were obtained:
Human NPY1 receptor = molecular target: T1, Human NPY1 receptor (Homo sapiens, UniProt P25929); experiment: Human NPY1 receptor binding assay ([125I]PYY, SK-N-MC cells); settings: [125I]PYY, SK-N-MC cells; read-out: hNPYI IC50
T1 construct: host or cells: SK-N-MC cells
T1 sequence (P25929 1-384): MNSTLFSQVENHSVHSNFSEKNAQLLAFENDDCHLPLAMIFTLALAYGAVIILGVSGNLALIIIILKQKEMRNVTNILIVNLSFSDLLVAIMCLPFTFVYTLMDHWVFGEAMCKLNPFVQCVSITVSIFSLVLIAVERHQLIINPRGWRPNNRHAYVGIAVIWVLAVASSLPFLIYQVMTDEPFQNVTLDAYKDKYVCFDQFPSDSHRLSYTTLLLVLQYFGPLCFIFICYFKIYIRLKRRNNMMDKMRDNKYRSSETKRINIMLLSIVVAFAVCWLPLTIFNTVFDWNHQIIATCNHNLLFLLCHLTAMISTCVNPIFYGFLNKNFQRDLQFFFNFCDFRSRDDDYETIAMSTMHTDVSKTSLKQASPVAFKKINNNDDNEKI
Experimental: A. Human NPY1 Receptor Binding Assay
This is a modification of Gordon et al., (J. Neurochem. 55:506-513, 1990). SK-N-MC cell (ATCC, Rockville, Md.) were plated in 24-well plates. Once confluent, cells were rinsed with Dulbecco's phosphate buffered saline (DPBS). Cells were then preincubated in binding buffer containing serum-free DMEM, 25 mM HEPES (pH 7.3), 0.5% bovine serum albumin (BSA), 0.1% bacitracin and 0.1 mM phenylmethylsulfonylfluoride for 30 minutes at room temperature. Drug dilution and [125I]PYY (˜50 pM: NEN-DuPont) were added to the wells, and the cells were incubated for an additional 3 hours at room temperature, followed by rinsing with ice-cold DPBS. Nonspecific binding was defined with 1 μM NPY. After lysing the cells with 1% Triton X-100, the amount of radioactivity in the lysates was quantitated with a gamma counter.

Rat NPY5 receptor = molecular target: T2, Rat NPY5 receptor (Rattus norvegicus, UniProt Q63634); experiment: Rat NPY5 receptor binding assay ([125I]PYY, membrane protein); settings: [125I]PYY, read-out: rNPY5 IC50
T2 sequence (Q63634 1-445): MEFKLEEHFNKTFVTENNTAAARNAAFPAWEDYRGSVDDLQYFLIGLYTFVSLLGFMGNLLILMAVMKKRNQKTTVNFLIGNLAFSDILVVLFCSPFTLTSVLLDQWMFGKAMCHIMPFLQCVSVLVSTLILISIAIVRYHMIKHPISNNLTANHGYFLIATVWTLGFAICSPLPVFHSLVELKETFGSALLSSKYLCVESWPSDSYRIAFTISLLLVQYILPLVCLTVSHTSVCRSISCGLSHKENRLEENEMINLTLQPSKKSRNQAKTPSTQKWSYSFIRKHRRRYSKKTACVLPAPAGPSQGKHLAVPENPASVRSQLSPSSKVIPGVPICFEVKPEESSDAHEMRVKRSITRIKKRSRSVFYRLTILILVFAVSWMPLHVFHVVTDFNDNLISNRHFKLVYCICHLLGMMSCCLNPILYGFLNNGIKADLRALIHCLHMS
Summary of the method: (§1)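 Bound [125I]PYY is measured by gamma counting or liquid scintillation after vacuum filtration and ice-cold washes. Before that, membranes, 75-100 pM tracer and compound are incubated 2 hours at room temperature, with nonspecific binding defined by 1 μM PYY.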

human Y4/PP1 receptor = human Y4/PP1 receptor (Homo sapiens, UniProt P50391); experiment: Human Y4/PP1 receptor binding assay ([125I]human PP, membrane protein); settings: [125I]human PP, membrane protein; read-out: hNPY4 IC50
human Y4/PP1 receptor, sequence (P50391 whole entry): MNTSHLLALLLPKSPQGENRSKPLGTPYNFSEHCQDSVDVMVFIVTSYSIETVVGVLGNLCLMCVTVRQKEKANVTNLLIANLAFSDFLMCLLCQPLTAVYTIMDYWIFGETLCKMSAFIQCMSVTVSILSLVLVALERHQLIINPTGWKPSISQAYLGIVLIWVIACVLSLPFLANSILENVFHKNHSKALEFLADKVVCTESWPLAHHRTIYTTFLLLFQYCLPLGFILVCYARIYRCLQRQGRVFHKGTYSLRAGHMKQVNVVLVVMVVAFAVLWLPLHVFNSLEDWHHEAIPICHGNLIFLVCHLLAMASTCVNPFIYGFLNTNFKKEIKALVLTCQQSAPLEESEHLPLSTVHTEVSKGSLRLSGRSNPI
Experimental: B. Human Y2 and Y4/PP1 Receptor Binding Assays
Binding assays were performed on GF/C Millipore 96-well plates pretreated with 0.02% polyethylenimine. The binding buffer for rat Y2 binding is Krebs-Ringer bicarbonate (pH 7.4) containing 0.01% BSA and 0.005% bacitracin. Samples consist of membrane protein, 25 pM [1251]PYY and drug dilution. Nonspecific binding is defined by 1 μM NPY. The binding buffer for human Y4/PP1 binding consists of 137 mM NaCl, 5.4 mM KCl, 0.44 mM KH2PO4, 1.26 mM CaCl2, 0.81 mM MgSO4, 20 mM HEPES, 1 mM dithiothreitol, 0.1% bacitracin, 100 mg/l streptomycin sulfate, 1 mg/l aprotinin, 10 mg/ml soybean trypsin inhibitor and 0.3% BSA, pH 7.4. Samples consist of membrane protein, 50 pM human [1251]human PP (hPP: NEN DuPont, Boston, Mass.) and drug dilution. 1 μM hPP is used to define nonspecific binding.
After a 2 hour incubation at room temperature with constant mixing, the samples are aspirated on a vacuum manifold, and rinsed with ice-cold binding buffer. The amount of radioactivity in each well is quantitated with either gamma counting or liquid scintillation.

Human NPY5 receptor = molecular target: T3, Human NPY5 receptor (Homo sapiens, UniProt Q15761); experiment: Human NPY5 receptor binding assay ([125I]PYY, membrane protein); settings: [125I]PYY, read-out: hNPY5 IC50
T3 sequence (Q15761 1-445): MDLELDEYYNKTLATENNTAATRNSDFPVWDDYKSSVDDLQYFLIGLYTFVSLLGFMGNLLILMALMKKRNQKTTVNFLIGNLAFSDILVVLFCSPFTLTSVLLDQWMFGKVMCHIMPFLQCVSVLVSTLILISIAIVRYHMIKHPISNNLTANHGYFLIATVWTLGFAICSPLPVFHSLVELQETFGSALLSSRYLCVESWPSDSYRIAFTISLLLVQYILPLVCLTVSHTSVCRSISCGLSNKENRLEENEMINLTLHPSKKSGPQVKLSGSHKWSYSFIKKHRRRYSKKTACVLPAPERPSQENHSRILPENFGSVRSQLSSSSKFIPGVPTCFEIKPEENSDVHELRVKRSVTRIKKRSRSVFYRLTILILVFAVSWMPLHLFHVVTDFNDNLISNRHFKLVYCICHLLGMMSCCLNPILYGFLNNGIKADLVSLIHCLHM
Summary of the method: as §1

Y2 receptor = molecular target: T4, Y2 receptor (Homo sapiens, UniProt P49146); experiment: Y2 receptor binding assay ([125I]PYY, membrane protein); settings: [125I]PYY, membrane protein; read-out: hNPY2 IC50
T4 sequence (P49146 1-381): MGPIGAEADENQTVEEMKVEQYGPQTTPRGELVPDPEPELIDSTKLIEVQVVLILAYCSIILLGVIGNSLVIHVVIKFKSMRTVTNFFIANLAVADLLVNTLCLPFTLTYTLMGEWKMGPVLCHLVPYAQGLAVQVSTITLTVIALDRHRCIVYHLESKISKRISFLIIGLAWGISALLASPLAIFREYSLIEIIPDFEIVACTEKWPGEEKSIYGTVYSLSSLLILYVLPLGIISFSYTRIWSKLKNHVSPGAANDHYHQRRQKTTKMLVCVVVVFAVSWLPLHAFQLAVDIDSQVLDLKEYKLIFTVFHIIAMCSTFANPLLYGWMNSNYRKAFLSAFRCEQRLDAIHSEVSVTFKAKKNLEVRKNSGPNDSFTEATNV
Summary of the method: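 Filtration binding with membrane protein and drug dilution, 2 h at room temperature with mixing, radioactivity counted by gamma or scintillation. Y2: 25 pM [125I]PYY in Krebs-Ringer bicarbonate pH 7.4 with 0.01% BSA, nonspecific by 1 μM NPY. Y4/PP1: 50 pM [125I]hPP in HEPES-buffered saline pH 7.4 with protease inhibitors and 0.3% BSA, nonspecific by 1 μM hPP.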

SMILES	pIC50 (Human NPY1 receptor)	pIC50 (Rat NPY5 receptor)	pIC50 (human Y4/PP1 receptor)	pIC50 (Human NPY5 receptor)	pIC50 (Y2 receptor)
NC(=O)c1ccc(NC(=O)CN2CCC(n3c(=O)[nH]c4ccccc43)CC2)cc1 [Compound 350, 4-(2-[4-(2-Oxo-2,3-dihydro-benzoimidazol-1-yl)-piperidin-1-yl]-acetylamino)-benzamide, reference compound]	< 5.30	5.85	< 5.30	5.64	< 5.30
O=C(CN1CCC(n2c(=O)[nH]c3ccccc32)CC1)Nc1ccc([N+](=O)[O-])cc1 [Compound 355, N-(4-Nitro-phenyl)-2-[4-(2-oxo-2,3-dihyro-benzoimidazol-1-yl)-piperidin-1-yl]-acetamide, reference compound]	< 5.30	6.72	< 5.30	6.70	< 5.30
CCCCOc1ccc2ccc(NC(=O)CN3CCC(n4c(=O)[nH]c5ccccc54)CC3)cc2c1 [Compound 343, N-(7-Butoxy-naphthalen-2-yl)-2-[4-(2-oxo-2,3-dihydro-benzoimidazol-1-yl)-piperidin-1-yl]-acetamide, reference compound]	< 5.30	7.35	< 5.30	6.96	< 5.30
COC(=O)c1ccc(NC(=O)CN2CCC(n3c(=O)[nH]c4ccccc43)CC2)cc1 [Compound 360, 4-(2-[4-(2-Oxo-2,3-dihydro-benzoimidazol-1-yl)-piperidin-1-yl]-acetylamino)-benzoic acid methyl ester, reference compound]	< 5.30	7.25	< 5.30	7.26	< 5.30
O=C(CN1CCC(n2c(=O)[nH]c3ccccc32)CC1)Nc1ccccc1-c1ccccc1 [Compound 324, N-Biphenyl-2-yl-2-[4-(2-oxo-2,3-dihydro-benzoimidazol-1-yl)-piperidin-1-yl]-acetamide; hydrochloride]	< 5.30	6.16	< 5.30	6.41	< 5.30
CC(=O)Nc1ccc(NC(=O)CN2CCC(n3c(=O)[nH]c4ccccc43)CC2)cc1 [Compound 351, N-(4-Acetylamino-phenyl)-2-[4-(2-oxo-2,3-dihydro-benzoimidazol 1-yl)-piperidin-1-yl]-acetamide, reference compound]	< 5.30	6.01	< 5.30	6.24	< 5.30
Nc1cc(S(=O)(=O)c2ccccc2)ccc1NC(=O)CN1CCC(n2c(=O)[nH]c3ccccc32)CC1 [Compound 335, N-(2-Amino-4-benzenesulfonyl-phenyl)-2-[4-(2-oxo-2,3-dihydro-benzoimidazol-1-yl)-piperidin-1-yl]-acetamide, reference compound]	< 5.30	7.01	< 5.30	6.96	< 5.30

Other lines, results leading:

pIC50 (Human NPY1 receptor)	pIC50 (Rat NPY5 receptor)	pIC50 (human Y4/PP1 receptor)	pIC50 (Human NPY5 receptor)	pIC50 (Y2 receptor)	SMILES
< 5.30	< 5.00	< 5.30	5.92	< 5.30	O=C(CN1CCC(n2c(=O)[nH]c3ccccc32)CC1)Nc1ccccc1Cl [Compound 348, N-(2-Chloro-phenyl)-2-[4-(2-oxo-2,3-dihydro-benzoimidazol-1-yl)-piperidin-1-yl]-acetamide, reference compound]
< 5.30	6.27	< 5.30	6.39	< 5.30	COc1ccc(NC(=O)CN2CCC(n3c(=O)[nH]c4ccccc43)CC2)cc1 [Compound 361, N-(4-Methoxy-phenyl)-2-[4-(2-oxo-2,3-dihydro-benzoimidazol-1-yl)-piperidin-1-yl]-acetamide, reference compound]
< 5.30	5.92	< 5.30	6.04	< 5.30	CN(C)c1cccc(NC(=O)CN2CCC(n3c(=O)[nH]c4ccccc43)CC2)c1 [Compound 338, reference compound]
< 5.30	6.69	< 5.30	6.66	< 5.30	CCN(CC)c1ccc(NC(=O)CN2CCC(n3c(=O)[nH]c4ccccc43)CC2)cc1 [Compound 336, N-(4-Diethylamino-phenyl)-2-[4-(2-oxo-2,3-dihydro-benzoimidazol-1-yl)-piperidin-1-yl]-acetamide, reference compound]
< 5.30	6.89	< 5.30	6.84	< 5.30	CCOc1ccc(NC(=O)CN2CCC(n3c(=O)[nH]c4ccccc43)CC2)cc1 [Compound 347, N-(4-Ethoxy-phenyl)-2-[4-(2-oxo-2,3-dihydro-benzoimidazol-1-yl)-piperidin-1-yl]-acetamide, reference compound]
< 5.30	5.80	< 5.30	6.05	< 5.30	O=C(CNCCCn1c(=O)[nH]c2ccccc21)Nc1ccc(-c2ccccc2)cc1 [Compound 277, N-Biphenyl-4-yl-2-[3-(2-oxo-2,3-dihydro-benzoimidazol-1-yl)-propylamino]-acetamide]
